In PMC7756656, “Discovery of Homobivalent Bitopic Ligands of the Cannabinoid CB2 Receptor” (Chemistry (Weinheim an Der Bergstrasse, Germany), 2020):

How the values were obtained:
CB1R (hCB1R) [1] = biological target: T1, CB1R (hCB1R) (Homo sapiens, UniProt P21554); test: [3H]CP-55, […] competition binding, HEK-293T membranes; details: read-out: CB1R Ki [μM]^[b]
T1 construct: gene CNR1; expressed in HEK-293T cells; membrane fractions

CB2R (hCB2R) [2] = biological target: T2, CB2R (hCB2R) (Homo sapiens, UniProt P34972); test: as above; details: read-out: CB2R Ki [μM]^[b]
T2 construct: gene CNR2; expressed in HEK-293T cells

CB1R (hCB1R) [3] = biological target: T1, CB1R (hCB1R); test: biochemical; type: HEK-293T membranes; parameters: [3H]CP-55,940 competition radioligand binding, membrane filtration, scintillation counting
Excerpt: (§1) In vitro binding affinities of the alleged bitopic ligands 18–29 (Table 1) and the corresponding monovalent counterparts 6–17 (Table S1) were obtained from [^3H]CP‐55,940 competition‐binding assays using membrane fractions of the human CB1R and CB2R, respectively, expressed in HEK‐293T cells. […] Addition of the second pharmacophore makes bivalent ligands capable of binding CB2R in a selective manner. Optimal spacer length for N1‐ and N2‐ethyl derivatives is from 10 (n=8) to 14 (n=12) methylene units. S23 Aldrich, Madrid, Spain). Membranes were resuspended in the corresponding buffer and were incubated (90 min at 30 °C) with the radioligand and each compound at a high concentration (40 μM) with the purpose of determining the % of radioligand displacement. […] Nonspecific binding was determined with 10 μM WIN55212-2 (Sigma-Aldrich, Madrid, Spain) and total radioligand binding by incubation with the membranes in the absence of any compound. Filtration was performed by a Harvester filtermate (PerkinElmer, Boston, MA, USA) with Filtermat A GF/C filters pretreated with polyethylenimine 0.05%. After filtering, the filter was washed nine times with binding buffer and dried, and a melt-on scintillation sheet (MeltilexTM A, PerkinElmer, Boston, MA, USA) was melted onto it. Then, radioactivity was quantified by a liquid scintillation counter (Wallac MicroBeta Trilux, PerkinElmer, Boston, MA, USA). Competition binding data were analyzed by using GraphPad Prism, version 5.02 (GraphPad Software Inc., San Diego, CA, USA), and Ki values are expressed as the mean ± SEM of at least three experiments performed in triplicate for each. 2.2- cAMP determination assays. Determination of cAMP levels in HEK293 cells stably expressing the CB2R was performed using the Lance-Ultra cAMP kit (PerkinElmer) according to the manufacturer’s instructions. Briefly, HEK293 cells expressing the CB2R were dispensed in white 384-well microplates at a density of 5.000 cells per well. Finally, cells were incubated for 60 min at room temperature with HTRF assay reagents, and fluorescence at 665 nm was analyzed on a PHERAstar Flagship microplate reader equipped with an HTRF optical module (BMG Labtech). Data analysis was made based on the fluorescence ratio emitted by the labeled cAMP probe (665 nm) over the light emitted by the europium cryptate-labeled anti-cAMP antibody (620 nm). A standard curve was used to calculate cAMP concentration. Forskolin stimulated cAMP levels were normalized to 100%. Data was analyzed by using […]

CB2R (hCB2R) [4] = biological target: T2, CB2R (hCB2R); test: biochemical; type: HEK-293T membranes; parameters: [3H]CP-55,940 competition radioligand binding, membrane filtration, scintillation counting
Excerpt: as §1

CB1R (hCB1R) [5] = biological target: T1, CB1R (hCB1R); test: biochemical; type: HEK-293T membranes; parameters: [3H]CP-55,940 competition radioligand binding, membrane filtration, scintillation counting; remark: listed apart in the source
Excerpt: as §1, with “[…]” for “methylene”, “[compound left out]” for “WIN55212-2”, “[…]” for “liquid”

CB2R (hCB2R) [6] = biological target: T2, CB2R (hCB2R); test: biochemical; type: HEK-293T membranes; parameters: [3H]CP-55,940 competition radioligand binding, membrane filtration, scintillation counting; remark: listed apart in the source
Excerpt: as §1, with “[…]” for “methylene”, “[compound left out]” for “WIN55212-2”, “[…]” for “liquid”

CB2R (hCB2R) [7] = biological target: T2, CB2R (hCB2R); test: inhibition of forskolin-induced cAMP, HEK-293T cells; type: cell-based; details: read-out: Wild type / pEC50 (converted)

T1 sequence (P21554 whole entry): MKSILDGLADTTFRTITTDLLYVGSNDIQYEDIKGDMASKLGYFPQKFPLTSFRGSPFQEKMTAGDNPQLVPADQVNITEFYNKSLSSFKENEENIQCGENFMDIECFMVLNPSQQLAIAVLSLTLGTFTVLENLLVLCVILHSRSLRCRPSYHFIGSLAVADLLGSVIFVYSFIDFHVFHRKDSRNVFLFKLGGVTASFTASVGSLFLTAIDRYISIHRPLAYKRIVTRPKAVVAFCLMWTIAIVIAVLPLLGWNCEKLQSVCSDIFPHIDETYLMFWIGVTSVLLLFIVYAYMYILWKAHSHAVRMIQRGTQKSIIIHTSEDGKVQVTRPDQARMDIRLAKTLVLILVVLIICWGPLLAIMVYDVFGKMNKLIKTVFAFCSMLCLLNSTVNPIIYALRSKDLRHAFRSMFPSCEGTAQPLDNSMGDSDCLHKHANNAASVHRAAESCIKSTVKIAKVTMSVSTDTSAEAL
T2 sequence (P34972 whole entry): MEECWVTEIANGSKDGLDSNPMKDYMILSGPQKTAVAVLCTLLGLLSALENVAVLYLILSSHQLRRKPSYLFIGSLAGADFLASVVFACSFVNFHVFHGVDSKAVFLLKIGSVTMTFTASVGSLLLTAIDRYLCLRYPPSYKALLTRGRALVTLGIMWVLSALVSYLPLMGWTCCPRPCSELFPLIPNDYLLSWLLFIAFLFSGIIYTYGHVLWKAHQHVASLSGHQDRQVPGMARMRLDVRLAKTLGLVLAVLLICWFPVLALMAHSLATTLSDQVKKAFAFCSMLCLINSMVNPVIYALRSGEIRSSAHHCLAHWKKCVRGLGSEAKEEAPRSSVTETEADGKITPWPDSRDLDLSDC

Row | Structure (SMILES) | Ki (CB1R (hCB1R) [1]) [µM] | Ki (CB2R (hCB2R) [2]) [µM] | Ki (CB1R (hCB1R) [5]) [µM] | Ki (CB2R (hCB2R) [6]) [µM] | other results
1 | CCCCCCC(C)(C)c1cc(OCCCCCCCCOc2cc(C(C)(C)CCCCCC)cc3c2-c2c(cnn2CC)C(C)(C)O3)c2c(c1)OC(C)(C)c1cnn(CC)c1-2 [compound 20, bivalent chromenopyrazole 20 (R1 = N1-Et, n = 6)] | > 40 | 2.2 ± 0.7 | – | – | –
2 | CCCCCCC(C)(C)c1cc(OCCCCCCOc2cc(C(C)(C)CCCCCC)cc3c2-c2c(cnn2CC)C(C)(C)O3)c2c(c1)OC(C)(C)c1cnn(CC)c1-2 [compound 18, bivalent chromenopyrazole 18 (R1 = N1-Et, n = 4)] | > 40 | 28.1 ± 1.6 | – | – | –
3 | CCCCCCCCCCCCCCOc1cc(C(C)(C)CCCCCC)cc2c1-c1nn(CC)cc1C(C)(C)O2 [compound 15, 15] | – | – | – | – | Ki (CB1R (hCB1R) [3]): > 40 µM; Ki (CB2R (hCB2R) [4]): > 40 µM
4 | CCCCCCCCCCCCCCOc1cc(C(C)(C)CCCCCC)cc2c1-c1c(cnn1CC)C(C)(C)O2 [compound 14, 7-(1,1-Dimethylheptyl)-1-ethyl-1,4-dihydro-4,4-dimethyl-9-tetradecyloxychromeno[4,3-c]pyrazole] | – | – | > 40 | > 40 | –
5 | CCCCCCCCCCCCCCCCOc1cc(C(C)(C)CCCCCC)cc2c1-c1c(cnn1CC)C(C)(C)O2 [compound 16, 7-(1,1-Dimethylheptyl)-1-ethyl-9-hexadecyloxy-1,4-dihydro-4,4-dimethylchromeno[4,3-c]pyrazole] | – | – | > 40 | > 40 | –
6 | CCCCCCOc1cc(C(C)(C)CCCCCC)cc2c1-c1c(cnn1CC)C(C)(C)O2 [compound 6, 7-(1,1-Dimethylheptyl)-1-ethyl-9-hexyloxy1,4-Dihydro-4,4-dimethylchromeno[4,3-c]pyrazole] | – | – | > 40 | > 40 | –
7 | CCCCCCCCCCOc1cc(C(C)(C)CCCCCC)cc2c1-c1c(cnn1CC)C(C)(C)O2 [compound 10, 9-Decyloxy-7-(1,1-dimethylheptyl)-1-ethyl-1,4-dihydro-4,4-dimethylchromeno[4,3-c]pyrazole] | – | – | > 40 | > 40 | –
8 | CCCCCCC(C)(C)c1cc(OCCCCCCCCCCCCCCCCOc2cc(C(C)(C)CCCCCC)cc3c2-c2nn(CC)cc2C(C)(C)O3)c2c(c1)OC(C)(C)c1cn(CC)nc1-2 [compound 29, bivalent chromenopyrazole 29 (R1 = N2-Et, n = 14)] | > 40 | 2.12 ± 0.21 | – | – | –
9 | CCCCCCC(C)(C)c1cc(OCCCCCCCCCCCCOc2cc(C(C)(C)CCCCCC)cc3c2-c2nn(CC)cc2C(C)(C)O3)c2c(c1)OC(C)(C)c1cn(CC)nc1-2 [compound 25, bivalent chromenopyrazole 25 (R1 = N2-Et, n = 10)] | > 40 | 0.3 ± 0.1 | – | – | EC50 (CB2R (hCB2R) [7]): 0.0631 µM
10 | CCCCCCCCCCCCCCCCOc1cc(C(C)(C)CCCCCC)cc2c1-c1nn(CC)cc1C(C)(C)O2 [compound 17, 17] | – | – | – | – | Ki (CB1R (hCB1R) [3]): > 40 µM; Ki (CB2R (hCB2R) [4]): > 40 µM
11 | CCCCCCC(C)(C)c1cc(OCCCCCCCCCCOc2cc(C(C)(C)CCCCCC)cc3c2-c2nn(CC)cc2C(C)(C)O3)c2c(c1)OC(C)(C)c1cn(CC)nc1-2 [compound 23, bivalent chromenopyrazole 23 (R1 = N2-Et, n = 8)] | > 40 | 5.8 ± 1.5 | – | – | –
12 | CCCCCCOc1cc(C(C)(C)CCCCCC)cc2c1-c1nn(CC)cc1C(C)(C)O2 [compound 7, 7-(1,1-Dimethylheptyl)-2-ethyl-9-hexyloxy-2,4-dihydro-4,4-dimethylchromeno[4,3-c]pyrazole] | – | – | > 40 | > 40 | –
13 | CCCCCCCCCCOc1cc(C(C)(C)CCCCCC)cc2c1-c1nn(CC)cc1C(C)(C)O2 [compound 11, 9-Decyloxy-7-(1,1-dimethylheptyl)-2-ethyl-2,4-dihydro-4,4-dimethylchromeno[4,3-c]pyrazole] | – | – | > 40 | > 40 | –
14 | CCCCCCCCCCCCOc1cc(C(C)(C)CCCCCC)cc2c1-c1c(cnn1CC)C(C)(C)O2 [compound 12, 7-(1,1-Dimethylheptyl)-9-dodecyloxy-1-ethyl-1,4-dihydro-4,4-dimethylchromeno[4,3-c]pyrazole] | – | – | > 40 | > 40 | –
15 | CCCCCCCCOc1cc(C(C)(C)CCCCCC)cc2c1-c1nn(CC)cc1C(C)(C)O2 [compound 9, 7-(1,1-Dimethylheptyl)-2-ethyl-2,4-dihydro-4,4-dimethyl-9-octyloxychromeno[4,3-c]pyrazole] | – | – | > 40 | > 40 | –
16 | CCCCCCC(C)(C)c1cc(OCCCCCCOc2cc(C(C)(C)CCCCCC)cc3c2-c2nn(CC)cc2C(C)(C)O3)c2c(c1)OC(C)(C)c1cn(CC)nc1-2 [compound 19, bivalent chromenopyrazole 19 (R1 = N2-Et, n = 4)] | > 40 | 12.4 ± 2 | – | – | –
17 | CCCCCCC(C)(C)c1cc(OCCCCCCCCCCCCOc2cc(C(C)(C)CCCCCC)cc3c2-c2c(cnn2CC)C(C)(C)O3)c2c(c1)OC(C)(C)c1cnn(CC)c1-2 [compound 24, bivalent chromenopyrazole 24 (R1 = N1-Et, n = 10)] | > 40 | 0.4 ± 0.14 | – | – | EC50 (CB2R (hCB2R) [7]): 0.0631 µM
18 | CCCCCCCCOc1cc(C(C)(C)CCCCCC)cc2c1-c1c(cnn1CC)C(C)(C)O2 [compound 8, 7-(1,1-Dimethylheptyl)-1-ethyl-1,4-dihydro-4,4-dimethyl-9-octyloxychromeno[4,3-c]pyrazole] | – | – | > 40 | > 40 | –
19 | CCCCCCC(C)(C)c1cc(OCCCCCCCCCCCCCCOc2cc(C(C)(C)CCCCCC)cc3c2-c2c(cnn2CC)C(C)(C)O3)c2c(c1)OC(C)(C)c1cnn(CC)c1-2 [compound 26] | > 40 | 0.8 ± 0.1 | – | – | EC50 (CB2R (hCB2R) [7]): 0.316 µM
20 | CCCCCCCCCCCCOc1cc(C(C)(C)CCCCCC)cc2c1-c1nn(CC)cc1C(C)(C)O2 [compound 13, 7-(1,1-Dimethylheptyl)-9-dodecyloxy-2-ethyl-2,4-dihydro-4,4-dimethylchromeno[4,3-c]pyrazole] | – | – | > 40 | > 40 | –
